# Experimental data reported in ChEMBL document CHEMBL4152285, “Structure-based design and profiling of novel 17β-HSD14 inhibitors” (Eur J Med Chem, 2018).
# pKi: −log10 of the molar value. Activity calls are given as the source filed them. The rule behind the calls is not given here.
# Legend:
# [1] = Solubility of the compound in PBS at 200 uM at pH 7.4 measured after 24 hrs; type: physicochemical
# [2] = target: T1, 17-beta-hydroxysteroid dehydrogenase type 1 (Homo sapiens) (UniProt P14061); experiment: Inhibition of human placental cytosolic 17beta-HSD1 using [2,4,6,7-3H]-labeled E1/E1 as substrate and NADH at 1 uM after 10 mins by HPLC based radioflow detection method
# T1 sequence (whole entry): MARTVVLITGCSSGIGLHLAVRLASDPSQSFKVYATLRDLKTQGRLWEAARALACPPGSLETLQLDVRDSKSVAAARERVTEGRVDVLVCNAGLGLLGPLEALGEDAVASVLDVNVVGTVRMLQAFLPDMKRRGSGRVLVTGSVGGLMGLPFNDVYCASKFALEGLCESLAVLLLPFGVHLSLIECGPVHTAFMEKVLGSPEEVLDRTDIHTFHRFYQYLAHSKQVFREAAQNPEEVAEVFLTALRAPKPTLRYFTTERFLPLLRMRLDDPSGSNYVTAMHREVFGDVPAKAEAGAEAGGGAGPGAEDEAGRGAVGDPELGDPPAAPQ
# Estrogen receptor = target: T2, Estrogen receptor (Homo sapiens, UniProt P03372); experiment: Agonist activity at ERalpha (unknown origin) expressed in human U2OS cells after 24 hrs by luciferase reporter gene assay; type: cell-based
# T2 sequence (P03372 whole entry): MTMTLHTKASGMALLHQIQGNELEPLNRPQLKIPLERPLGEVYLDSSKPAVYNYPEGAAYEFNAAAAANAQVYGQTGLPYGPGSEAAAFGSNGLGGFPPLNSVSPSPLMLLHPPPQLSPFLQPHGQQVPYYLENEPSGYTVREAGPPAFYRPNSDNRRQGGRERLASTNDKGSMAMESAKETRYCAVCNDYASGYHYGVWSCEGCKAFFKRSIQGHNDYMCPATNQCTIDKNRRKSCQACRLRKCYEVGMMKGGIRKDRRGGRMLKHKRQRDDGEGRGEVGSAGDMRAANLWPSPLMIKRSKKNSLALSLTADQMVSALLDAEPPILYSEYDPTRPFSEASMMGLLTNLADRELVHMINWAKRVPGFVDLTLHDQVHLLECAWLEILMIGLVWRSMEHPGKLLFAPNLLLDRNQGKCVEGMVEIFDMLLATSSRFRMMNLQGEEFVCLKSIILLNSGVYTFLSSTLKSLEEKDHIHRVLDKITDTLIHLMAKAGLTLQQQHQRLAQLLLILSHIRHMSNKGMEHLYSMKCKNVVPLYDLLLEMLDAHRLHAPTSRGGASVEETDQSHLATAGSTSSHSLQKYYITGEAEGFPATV
# [3] = target: T3, 3-hydroxyacyl-CoA dehydrogenase type-2 (Homo sapiens) (UniProt Q99714); experiment: Inhibition of human full length N-terminal GST-tagged 17beta-HSD10 expressed in Escherichia coli BL21 DE3 Codon plus using [6,7-3H]-labeled E2/E2 as substrate and NADH at 1 uM after 30 mins by HPLC based radioflow detection method
# T3 sequence (whole entry): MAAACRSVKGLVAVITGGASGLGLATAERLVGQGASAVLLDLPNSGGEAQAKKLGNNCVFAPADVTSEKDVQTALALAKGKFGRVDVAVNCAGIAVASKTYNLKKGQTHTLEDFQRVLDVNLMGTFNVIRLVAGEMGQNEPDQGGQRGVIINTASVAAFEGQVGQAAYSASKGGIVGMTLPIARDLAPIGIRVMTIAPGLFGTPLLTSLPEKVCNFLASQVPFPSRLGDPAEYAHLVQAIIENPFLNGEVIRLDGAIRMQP
# [4] = Cytotoxicity against HEK293 cells assessed as cell survival at 20 uM after 72 hrs by MTT assay relative to control; type: cell-based; settings: human, read-out: Survival
# [5] = target: T4, 17-beta-hydroxysteroid dehydrogenase type 2 (Homo sapiens) (UniProt P37059); experiment: Inhibition of human placental cytosolic 17beta-HSD2 using [2,4,6,7-3H]-labeled E2/E2 as substrate and NADH at 1 uM after 10 mins by HPLC based radioflow detection method
# T4 sequence (whole entry): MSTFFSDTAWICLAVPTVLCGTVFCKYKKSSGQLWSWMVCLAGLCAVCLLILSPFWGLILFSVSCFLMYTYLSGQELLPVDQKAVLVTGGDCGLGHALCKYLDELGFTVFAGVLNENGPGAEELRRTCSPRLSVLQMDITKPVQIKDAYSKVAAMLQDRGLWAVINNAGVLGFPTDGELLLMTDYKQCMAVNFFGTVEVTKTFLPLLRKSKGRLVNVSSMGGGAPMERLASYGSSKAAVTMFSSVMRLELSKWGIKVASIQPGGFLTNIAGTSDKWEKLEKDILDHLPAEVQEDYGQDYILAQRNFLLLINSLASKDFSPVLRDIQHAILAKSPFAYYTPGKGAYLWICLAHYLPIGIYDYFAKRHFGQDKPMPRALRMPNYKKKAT
# [6] = target: T5, 17-beta-hydroxysteroid dehydrogenase 14 (Homo sapiens, UniProt Q9BPX1); experiment: Binding affinity to recombinant 17beta-HSD14 (unknown origin) expressed in Escherichia coli BL21 pLysS strain using E2 as substrate in presence of NAD measured continuously for 15 mins by fluorimetric method
# T5 sequence (Q9BPX1 whole entry): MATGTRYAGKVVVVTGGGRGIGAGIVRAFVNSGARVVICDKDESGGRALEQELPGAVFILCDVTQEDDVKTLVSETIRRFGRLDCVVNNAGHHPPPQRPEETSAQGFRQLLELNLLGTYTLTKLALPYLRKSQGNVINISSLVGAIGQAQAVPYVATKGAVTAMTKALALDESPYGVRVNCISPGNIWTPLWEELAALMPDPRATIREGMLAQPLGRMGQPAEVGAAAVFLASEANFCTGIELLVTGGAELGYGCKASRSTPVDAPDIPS
# [7] = target: T6, 17-beta-hydroxysteroid dehydrogenase 14 (Homo sapiens) (UniProt Q9BPX1); experiment: Inhibition of recombinant 17beta-HSD14 (unknown origin) expressed in Escherichia coli BL21 pLysS strain at 2 uM using E2 as substrate in presence of NAD measured continuously for 15 mins by fluorimetric method
# T6 sequence (whole entry): T5 sequence (Q9BPX1 whole entry)
# [8] = Cytotoxicity against HEK293 cells assessed as decrease in cell viability after 72 hrs by MTT assay; type: cell-based; settings: human, read-out: IG50
# [9] = target: T7, ERalpha (estrogen receptor) (Homo sapiens, UniProt P03372); experiment: Agonist activity at ERalpha (unknown origin) expressed in human U2OS cells after 24 hrs by luciferase reporter gene assay relative to E2; type: cell-based; settings: U2OS cells expressing ERalpha, read-out: Activity
# T7 sequence (P03372 whole entry): T2 sequence (P03372 whole entry)
# [10] = target: T6, 17-beta-hydroxysteroid dehydrogenase 14 (Homo sapiens); experiment: Inhibition of recombinant 17beta-HSD14 (unknown origin) expressed in Escherichia coli BL21 pLysS strain at 100 uM using E2 as substrate in presence of NAD measured continuously for 15 mins by fluorimetric method
SMILES,"solubility at 24 h, 200 µM [1] [µM]",inhibition [2],Activity (Estrogen receptor),inhibition [3],"viability at 72 h, 20 µM [4] [%]",inhibition [5] [%],pKi [6],inhibition [7] [%],GI50 at 72 h [8] [nM],Emax at 24 h [9] [%],inhibition [10] [%]
N#Cc1ccc2ccc(C(=O)c3ccc(F)c(O)c3)nc2c1,25 to 50,inactive,Not Active,inactive,80,56,8.05,–,–,–,–
O=C(c1ccc(F)c(O)c1)c1ccc2ccccc2n1,> 200,6%,–,inactive,–,76,7.92,69,–,–,–
Cc1cc(-c2ccc3ccc(C(=O)c4ccc(F)c(O)c4)nc3c2)ccc1O,13 to 25,11%,–,inactive,–,80,8.22,–,–,–,–
CN(c1ccc(F)c(O)c1)c1cccc(-c2cccc(O)c2F)n1,> 200,99%,–,19%,–,100,7.38,–,–,–,–
C=C(c1ccc(F)c(O)c1)c1cccc(-c2cccc(O)c2F)n1,> 200,88%,–,inactive,80,100,8.82,–,> 100000,–,–
O=C(c1ccc(F)c(O)c1)c1cccc(-c2cccc(O)c2F)n1,> 200,8%,–,inactive,80,56,–,–,> 100000,13,–
O=C(c1ccc(F)c(O)c1)c1ccc2ccc(-c3nnn[nH]3)cc2n1,50 to 100,inactive,Not Active,inactive,80,52,8.00,–,> 100000,–,–
Oc1cc(Nc2cccc(-c3cccc(O)c3F)n2)ccc1F,> 200,57%,–,inactive,–,82,7.33,–,–,–,–
CN(C(=O)c1ccc(F)c(O)c1)c1cccc(-c2cccc(O)c2F)n1,–,–,–,–,–,–,5.69,–,–,–,–
O=C(Nc1cccc(-c2cccc(O)c2F)n1)c1ccc(F)c(O)c1,–,–,–,–,–,–,6.16,–,–,–,–
Cc1ccc2nc(C(=O)c3ccc(F)c(O)c3)ccc2c1,25 to 50,12%,–,inactive,80,78,8.22,–,–,–,–
O=C(c1ccc(F)c(O)c1)c1ccc2ccccc2c1,25 to 50,64%,–,inactive,–,96,8.22,–,–,–,–
COc1cc(C(=O)c2ccc3ccccc3n2)ccc1F,100 to 200,–,–,–,–,–,–,–,–,–,21
Oc1cc(Oc2cccc(-c3cccc(O)c3F)n2)ccc1F,> 200,69%,–,17%,–,100,7.24,–,–,–,–
O=C(c1ccc(F)c(O)c1)c1ccc2cc(O)ccc2n1,> 200,20%,–,inactive,80,71,6.92,–,> 100000,–,–
O=C(Nc1ccc(F)c(O)c1)c1cccc(-c2cccc(O)c2F)n1,–,–,–,–,–,–,6.47,–,–,–,–
Nc1ccc2ccc(C(=O)c3ccc(F)c(O)c3)nc2c1,> 200,21%,–,inactive,–,83,7.47,–,–,–,–
